# From PMC11188305, “Reproductive and fetal toxicity studies of histamine H3 receptor antagonist DL76 used in mice to prevent maximal electroshock-induced seizure” (Frontiers in Pharmacology, 2024)
# How the values were obtained:
# hH2R = target: T1, hH2R (Homo sapiens, UniProt P25021); assay: hH2R radioligand binding, [125I]APT in CHO cells (Eurofins Cerep)
# T1 construct: host or cells: CHO cells
# [1] = parameters: method as in Canale et al., 2021; conditions: ref Canale et al., 2021; cited from earlier work
# adrenergic α2 receptor = adrenergic α2 receptor binding, [3H]clonidine in rat cerebral cortex; conditions: protocol of Canale et al., 2021
# [2] = test system: MES-induced seizures in mice; assay: Maximal electroshock (MES)-induced seizure, duration of tonic hind limb extension (THLE); type: in vivo, C57BL/6J mice; conditions: for protection compared with reference drug VPA: DL76 60 mg/kg i.p. vs VPA 300 mg/kg; for mean difference in THLE: DL76 60 mg/kg vs saline-, DL76 7.5, 15, 30 mg/kg groups, p < 0.05
# From the text: As previously described and with a slight modification in the intensity applied, seizures were elicited in mice with a 50-Hz alternating current of 120 mA intensity ([Kaminski et al., 2015]; [Song et al., 2020]; [Xiao et al., 2021]; [Hua et al., 2023]). The current was applied through ear electrodes for 0.2 s. Protection against the spread of MES-induced convulsion was defined as the abolition of the tonic hind limb extension (THLE) component of the seizure ([Kaminski et al., 2015]; [Song et al., 2020]; [Xiao et al., 2021]; [Hua et al., 2023]). The animals were divided into the following experimental groups, with eight mice in each: the control group injected with saline, the positive control group injected with 300 mg/kg of VPA (the minimal dose of VPA that protected animals against the spread of MES-induced convulsions without mortality in mice) ([Sadek et al., 2015]; [Bastaki et al., 2018]), and four groups that were administered the test compound DL76 at doses of 7.5 mg/kg, 15 mg/kg, 30 mg/kg, or 60 mg/kg. All drugs were administered 30–45 min before the MES challenge. In a further group of eight mice, the most promising and protective dose of DL76 (60 mg/kg, i.p.) was co-injected with RAM (10 mg/kg, i.p.), 30 min apart and 15 min prior to the MES test. Protection against the spread of MES-induced convulsion was defined as the abolition of the THLE component of the convulsion ([Sadek et al., 2015]; [Alachkar et al., 2018]; [Bastaki et al., 2018]).
# Statistical analyses employed SPSS 26.0 (IBM Middle East, Dubai, UAE). Data were presented as means ± SEM. […] Fetal abnormality data were presented as counts and percentages. Fisher’s exact test compared the percentages of abnormalities between the control group (saline) and the different dose groups. All tests were two-tailed, and significance was set at p < 0.05.
# T1 sequence (P25021 whole entry): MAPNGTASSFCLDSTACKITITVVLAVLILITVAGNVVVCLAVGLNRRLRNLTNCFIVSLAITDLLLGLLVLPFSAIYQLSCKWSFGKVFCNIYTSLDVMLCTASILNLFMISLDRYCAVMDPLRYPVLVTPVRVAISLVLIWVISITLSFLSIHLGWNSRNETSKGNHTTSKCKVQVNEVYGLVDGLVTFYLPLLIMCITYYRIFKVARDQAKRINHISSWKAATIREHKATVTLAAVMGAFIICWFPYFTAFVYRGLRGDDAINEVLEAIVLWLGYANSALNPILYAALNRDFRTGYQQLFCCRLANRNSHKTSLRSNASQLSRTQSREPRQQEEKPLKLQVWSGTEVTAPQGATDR
compound,measurement,setting,value
"CC(C)(C)c1ccc(OCCCN2CCCCC2)cc1 [DL76, 1-(3-(4-tert-butyl-phenoxy)propyl) piperidine]",inhibition at 1 µM,hH2R,2.8%
same,antiparkinsonian effects,[1],antiparkinsonian effects
same,Ki,adrenergic α2 receptor,> 5 µM
same,difference of protective effects between male and female mice,"[2]; DL76 7.5, 15, 30 and 60 mg/kg i.p., p = 0.70, 0.685, 0.151, 0.398",no significant differences
same,"THLE compared with reference drug VPA (300 mg/kg, i.p.)","[2]; both sexes of adult mice, DL76 30 mg/kg and 60 mg/kg",no significant differences
same,THLE values compared with VPA,"[2]; both sexes of adult mice, lower doses of DL76 7.5 mg/kg and 15 mg/kg i.p.",significant difference
same,"mean difference, saline + saline vs. DL76 + RAM","[2]; female adult mice, DL76 60 mg/kg + RAM 10 mg/kg i.p., p = 0.17",1.33
same,protection after co-administration of RAM,"[2]; female adult mice, DL76 60 mg/kg i.p. + RAM 10 mg/kg i.p. 15 min before MES",abrogated
same,protection compared with reference drug VPA,"[2]; female adult mice, p = 0.72",comparable
same,mean difference in THLE,"[2]; female adult mice, 2nd of three printed values",10.63 s
same,mean difference in THLE,"[2]; female adult mice, 3rd of three printed values",3.13 s
same,protection against MES-induced convulsions,"[2]; female adult mice, DL76 7.5–60 mg/kg i.p.",significantly protected
same,protection against MES-induced seizures,"[2]; female and male mice, 7.5, 15, 30 and 60 mg/kg i.p., acute",significant and dose-dependent protection
same,"mean difference of THLE, saline vs. DL76+RAM","[2]; male adult mice, DL76 60 mg/kg + RAM 10 mg/kg i.p., p = 0.094",2.5 s
same,protection after co-injection with H3R agonist RAM,"[2]; male adult mice, DL76 60 mg/kg i.p. + RAM 10 mg/kg i.p. 15 min before MES",reversed
same,mean difference of THLE,"[2]; male adult mice, DL76 60 mg/kg i.p. vs DL76 (7.5 mg/kg)-treated group",7.25 s
same,mean difference of THLE,"[2]; male adult mice, DL76 60 mg/kg i.p. vs DL76 (15 mg/kg)-treated group",8.88 s
same,mean difference of THLE,"[2]; male adult mice, DL76 60 mg/kg i.p. vs DL76 (30 mg/kg)-treated group",10.75 s
same,protection compared with reference drug VPA,"[2]; male adult mice, p = 1.000",comparable
same,protective effect on MES-induced convulsions vs saline,"[2]; male adult mice, all doses 7.5, 15, 30, 60 mg/kg i.p., all p <0.0001",substantial protective effects
